Data taken from patent US5455234A, “Inhibition of hair growth” (priority 1994, dated 1995).

Assays:
[1] = test system: flank organs of Golden Syrian hamsters (androgen-stimulated hair growth); assay: Golden Syrian hamster assay (flank organ hair mass after topical application); format: in vivo
Text: Male intact Golden Syrian hamsters are considered acceptable models for human beard hair growth in that they display oval shaped flank organs, one on each side, each about 8 mm. in major diameter, which grow thick black and coarse hair similar to human beard hair. These organs produce hair in response to androgens in the hamster. To evaluate the effectiveness of a composition including an inhibitor, the flank organs of each of a group of hamsters are depilated by applying a thioglycolate based chemical depilatory (Surgex). To one organ of each animal 25 μl. of vehicle alone once a day is applied, while to the other organ of each animal an equal amount of vehicle containing an inhibitor of a cysteine synthetic pathway enzyme is applied. After thirteen applications (one application per day for five days a week), the flank organs are shaved and the amount of recovered hair (hair mass) from each is weighed. Percent-reduction of hair growth is calculated by subtracting the hair mass (mg) value of the test compound treated side from the hair mass value of the vehicle treated side; the delta value obtained is then divided by the hair mass value of the vehicle treated side, and the resultant number is multiplied by 100.
The above-described assay will be referred to herein as the "Golden Syrian hamster" assay.

[2] = test system: cysteine synthetic pathway intermediates in flank organ hair follicles; assay: Amino acid analysis of hamster flank organ hair follicles (Pico-Tag); format: in vivo; details: hair follicles of treated flank organs, vehicle A
Method: Hair follicles were isolated from the flank organs which were treated with either an inhibitor of a cysteine pathway enzyme or the carrier without the inhibitor (the control). L-Cystathiorine, homocysteine, and S-adenosyl homocysteine, which are involved in a pathway leading to cysteine synthesis, were measured by an amino acid analysis method. The amino analysis of hamster flank organ hair follicles was carried out using a commercially available system (Pico-Tag; Waters Associates, Inc., Milford, Mass.). Hair follicle amino acids were extracted with 0.1N HCL, an derivatized with phenylisothiocyanate to yield the phenylthiohydantion derivatives of the respective amino acids, which were then separated by C-18 reverse phase chromatography, and quantitated by in-line UV spectrophotometry.
More specifically, 250-500 μl of 0.1N HCL was added to each flank organ hair follicle sample, followed by treatment with a sonicator device to obtain cell extracts. The cell extracts were centrifuged at 12,000×gfor 5 min, and the recovered supernatant was filtered through 0.45μ filter. The filtrate was vacuum dried under nitrogen using the Pico-Tag work station. Samples were then derivatized with phenylisothiocyanate reagent by the procedure described in the Waters Associates Pico-Tag manual. An aliquot of the derivatized sample was injected on a C-18 reverse phase column (Pico-Tag column) and the elution was carried out with a gradient buffer system. This procedure separated the amino acids L-cystathionine, homocysteine, and S-adenosyl homocysteine from other amino acids present in hair follicle extracts. The amino acid concentrations were determined at UV wavelength 254 nm using an in-line spectrophotometer and a dedicated HPLC control and data analysis system (Waters Associates).

[3] = topical, dose 20%, vehicle A, pH 7.5, 13 applications
[4] = topical, dose 15%, vehicle B, pH 9.5, 13 applications
[5] = Table 2, topical, dose 0.25%, vehicle A, pH 4.5
[6] = Table 2, topical, dose 0.50%, vehicle A, pH 5.0
[7] = Table 2, topical, dose 1.00%, vehicle A, pH 5.0
[8] = Table 2, topical, dose 5.00%, vehicle A, pH 5.0
[9] = topical, dose 5%, vehicle A, pH 4.5, 13 applications
[10] = topical, dose 20%, vehicle A, pH 7.0, 13 applications
[11] = topical, dose 10%, vehicle A, pH 4.5, 13 applications
[12] = topical, dose 20%, vehicle A, pH 8.5, 13 applications
[13] = topical, dose 15%, vehicle A, pH 8.0, 13 applications

## NC(C(=O)O)C(F)(F)F (racemic) [3,3,3,-Trifluoro-DL-alanine]
[1]; [3]
  Hair Mass Treated (mg mean ± SEM): 1.110 ± 0.13 mg
  Percent Inhibition (mean ± SEM): 32.36 ± 8.01%

## C#CCC(N)C(=O)O (racemic) [DL-Propargylglycine, D,L-2-amino-4-pentynoic acid]
[1]; [4]
  Hair Mass Treated (mg mean ± SEM): 1.401 ± 0.14 mg
  Percent Inhibition (mean ± SEM): 33.12 ± 5.59%

## Nc1nccc2c1ncn2[C@@H]1C=C(CO)[C@@H](O)[C@H]1O [3-Deazaneplanocin]
[1]; [5]
  Hair Mass Treated: 1.889 ± 0.15 mg
  Percent Inhibition (mean ± SEM): 14.82 ± 5.45%
[1]; [6]
  Hair Mass Treated: 1.487 ± 0.16 mg
  Percent Inhibition (mean ± SEM): 35.49 ± 4.62%
[1]; [7]
  Hair Mass Treated: 1.113 ± 0.08 mg
  Percent Inhibition (mean ± SEM): 50.94 ± 4.77%
[1]; [8]
  Hair Mass Treated: 0.357 ± 0.15 mg
  Percent Inhibition (mean ± SEM): 86.65 ± 4.81%
[1]; topical application, dosage levels 0.25% to 5.00%
  dose dependence of inhibition in hair growth: increased dosage level of the inhibitor provided an increased inhibition in hair growth
[1]; [9]
  Hair Mass Treated (mg mean ± SEM): 0.357 ± 0.15 mg
  Percent Inhibition (mean ± SEM): 86.65 ± 4.81%
[2]; dose 0.125%, pH 4.5
  L-Cystathionine, Percent of Untreated Control (100%): 49%
  S-Adenosyl Homocysteine, Percent of Untreated Control (100%): 144%
[2]; dose 0.250%, pH 4.5
  L-Cystathionine, Percent of Untreated Control (100%): 29%
  S-Adenosyl Homocysteine, Percent of Untreated Control (100%): 149%
[2]; dose 0.500%, pH 4.5
  L-Cystathionine, Percent of Untreated Control (100%): 12%
  S-Adenosyl Homocysteine, Percent of Untreated Control (100%): 218%

## CC(=O)OC[C@H]1O[C@@H](n2ncc(=O)[nH]c2=O)[C@H](OC(C)=O)[C@@H]1OC(C)=O [6-Azauridine-2',3',5'-triacetate]
[1]; [10]
  Hair Mass Treated (mg mean ± SEM): 0.455 ± 0.05 mg
  Percent Inhibition (mean ± SEM): 80.25 ± 2.37%
[2]; dose 20%, pH 7.0
  L-Cystathionine, Percent of Untreated Control (100%): 60%

## Nc1ncnc2c1ncn2[C@@H]1O[C@H](CO)[C@@H](O)[C@H]1O [Adenosine]
[1]; [11]
  Hair Mass Treated (mg mean ± SEM): 1.140 ± 0.12 mg
  Percent Inhibition (mean ± SEM): 55.28 ± 4.00%

## NNC(=O)c1ccncc1 [Isonicotinic acid hydrazide]
[1]; [12]
  Hair Mass Treated (mg mean ± SEM): 1.344 ± 0.18 mg
  Percent Inhibition (mean ± SEM): 35.13 ± 7.98%

## N[C@@H](COC(=O)CCC(=O)O)C(=O)O [O-Succinyl serine]
[1]; [13]
  Hair Mass Treated (mg mean ± SEM): 0.710 ± 0.07 mg
  Percent Inhibition (mean ± SEM): 63.58 ± 4.69%
[2]; dose 15%, pH 8.0
  Homocysteine, Percent of Untreated Control (100%): 228%
  L-Cystathionine, Percent of Untreated Control (100%): 66%
